The text below walks through data of ChEMBL document CHEMBL1201862, “PubChem BioAssay data set” (2004).

Some test systems named below: SF-268; MDA-N; COLO 205; 786-0; LOX IMVI; A498; UACC-62; SK-MEL-2; SK-MEL-28; ACHN; SNB-75; HT-29; SR; SW-620; OVCAR-8; TK-10; PC-3; HCT-116; CAKI-1; CCRF-CEM.
Test in all cases: NCI tumour cell line growth inhibition, 48 h

Structures are written as SMILES.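 In this assay, cells in 96-well plates receive the compound at five concentrations for 48 hours. Endpoints are linearly interpolated between the surrounding concentrations. The concentration for 50% growth inhibition is given as GI50.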 Calls of active or inactive are those of the source. Rule as the data show it: active = GI50 up to about 1.1 µM and inactive = higher.

On to `COc1ccc(OC)c(-c2cc(C(=O)O)c3cc4ccccc4cc3n2)c1`, for which the GI50 with SF-268, with MDA-N, in the test on COLO 205, in the test with 786-0, in the test with LOX IMVI and with A498 was > 100 µM (inactive) each time. For the same compound, the GI50 with UACC-62, in the test on SK-MEL-2, in the test on SK-MEL-28, with ACHN, in the test on SNB-75 and with HT-29 was > 100 µM (inactive) each time. For the same compound, the GI50 in the test on SR, in the test with SW-620, in the test with OVCAR-8, in the test on TK-10, in the test with PC-3 and in the test with HCT-116 was > 100 µM (inactive) throughout. The GI50 with CAKI-1 was > 100 µM (inactive).
As to `C[C@]12O[C@@]3(C)O[C@@]3(C)[C@]3(C)O[C@]3(C)[C@@]1(C)O2`, the GI50 in the test with SF-268, in the test on MDA-N, in the test on COLO 205, in the test on 786-0, with LOX IMVI and in the test with A498 was > 100 µM (inactive) throughout. For the same compound, the GI50 is > 100 µM (inactive) with UACC-62; > 100 µM (inactive) in the test on SK-MEL-2; > 100 µM (inactive) with SK-MEL-28; > 100 µM (inactive) with ACHN; 0.598 µM (active) in the test with SNB-75; > 100 µM (inactive) in the test with HT-29. Also, the GI50 in the test on SR, in the test on OVCAR-8, in the test on TK-10, in the test on PC-3, in the test on HCT-116 and with CAKI-1 was > 100 µM (inactive) throughout.
`COP(=O)(OC)C1=c2c(C)noc2=C2C=COC2C1=O` (stereo not drawn): the GI50 in the test on SF-268, with MDA-N, with COLO 205, with 786-0, in the test with LOX IMVI and in the test on A498 was > 100 µM (inactive) each time. Besides, the GI50 with UACC-62 was > 100 µM (inactive); in the test on SK-MEL-2, > 100 µM (inactive); with ACHN, > 100 µM (inactive); in the test with CCRF-CEM, > 100 µM (inactive); in the test with SNB-75 it was 94.6 µM (inactive); in the test with HT-29, > 100 µM (inactive). In addition, the GI50 in the test with SR, in the test on SW-620, in the test on OVCAR-8, in the test with TK-10, in the test with PC-3 and in the test with HCT-116 was > 100 µM (inactive) in each case. Moreover, the GI50 in the test on CAKI-1 was > 100 µM (inactive).
As for `Cc1ccc2nc(-c3nccn3C)cc(C(=O)NC(C)CN(C)C)c2c1` (stereo not drawn), the GI50 is > 100 µM (inactive) in the test on SF-268; > 100 µM (inactive) with MDA-N; > 100 µM (inactive) with COLO 205; > 100 µM (inactive) with 786-0; 91.2 µM (inactive) in the test with LOX IMVI; > 100 µM (inactive) with A498. Moreover, the GI50 in the test with UACC-62 was > 100 µM (inactive); with SK-MEL-2, > 100 µM (inactive); in the test with SK-MEL-28 it was > 100 µM (inactive); in the test on ACHN, 60 µM (inactive); in the test on SNB-75, > 100 µM (inactive); in the test on HT-29 it was 72.6 µM (inactive). Besides, the GI50 in the test with SR was 0.711 µM (active); in the test on SW-620, > 100 µM (inactive); in the test on OVCAR-8, > 100 µM (inactive); with TK-10, > 100 µM (inactive); in the test on PC-3 it was 25.3 µM (inactive); in the test on HCT-116, > 100 µM (inactive). Also, in the test with CAKI-1, the GI50 is > 100 µM (inactive).
On to `Cc1cc(N(CCC#N)CCC#N)ccc1C(/N=N/c1ccccc1)=N\NC(=O)c1ccccc1`, for which the GI50 with SF-268 is 42.8 µM (inactive); with MDA-N, 7.96 µM (inactive); in the test with COLO 205, 20.4 µM (inactive); in the test on 786-0, 25.5 µM (inactive); in the test on A498, 24.6 µM (inactive); in the test with UACC-62, 2.77 µM (inactive). For the same compound, the GI50 with SK-MEL-2 is 77.1 µM (inactive); in the test with ACHN, 16.4 µM (inactive); with CCRF-CEM it was 18.6 µM (inactive); in the test with SNB-75, 48.6 µM (inactive); with HT-29 it was 16.8 µM (inactive); in the test with SR it was 6.81 µM (inactive). For the same compound, the GI50 in the test on OVCAR-8 is 24.3 µM (inactive); in the test on TK-10, 7.66 µM (inactive); in the test with PC-3, 16.9 µM (inactive); with HCT-116, 20.6 µM (inactive); in the test on CAKI-1 it was 28.2 µM (inactive).
On to `COC(=O)CCc1ccc2c(c1)C(=O)CC2`, for which the GI50 in the test with SF-268, in the test with MDA-N, in the test with 786-0, in the test with LOX IMVI, with A498 and in the test on SK-MEL-2 was > 100 µM (inactive) in each case. For the same compound, the GI50 in the test with SK-MEL-28 was > 100 µM (inactive); in the test with ACHN it was > 100 µM (inactive); in the test on CCRF-CEM, > 100 µM (inactive); with SNB-75, 29.7 µM (inactive); in the test with HT-29, > 100 µM (inactive); in the test with SR, > 100 µM (inactive). Moreover, the GI50 in the test on SW-620, with OVCAR-8, in the test with TK-10, in the test on PC-3 and in the test on HCT-116 was > 100 µM (inactive) each time.
With `COc1ccc(NC2=NCCO2)c2c1CCCC2`, the GI50 with MDA-N was 35.6 µM (inactive); in the test with COLO 205 it was 28.2 µM (inactive); in the test with 786-0 it was 93.5 µM (inactive); in the test on LOX IMVI, 29.1 µM (inactive); with A498, 61.1 µM (inactive); in the test on UACC-62, 24.4 µM (inactive). Moreover, the GI50 was 18.8 µM (inactive) in the test with SK-MEL-2; 30.9 µM (inactive) in the test on SK-MEL-28; 29.6 µM (inactive) in the test with ACHN; 25.5 µM (inactive) in the test with CCRF-CEM; 27.3 µM (inactive) in the test with SNB-75; 46.8 µM (inactive) with HT-29. The GI50 in the test on SR is 29.2 µM (inactive); in the test with SW-620, 47.4 µM (inactive); with OVCAR-8, 36.7 µM (inactive); with TK-10 it was 51.3 µM (inactive); with PC-3 it was 26.7 µM (inactive); in the test on HCT-116, 28.8 µM (inactive). The GI50 with CAKI-1 is 54.1 µM (inactive).
Take `COc1ccc(-c2[nH]c(-c3ccc(OC)cc3)c(-c3ccccn3)c2-c2ccccn2)cc1`: the GI50 was > 100 µM (inactive) in the test with SF-268; > 100 µM (inactive) in the test with MDA-N; 26 µM (inactive) in the test on COLO 205; > 100 µM (inactive) in the test on 786-0; 24 µM (inactive) in the test with LOX IMVI; 82 µM (inactive) in the test on A498. In addition, the GI50 is 34.3 µM (inactive) in the test on UACC-62; 74 µM (inactive) in the test with ACHN; 35.2 µM (inactive) in the test with CCRF-CEM; 31.2 µM (inactive) with SNB-75; 21.6 µM (inactive) in the test with HT-29; 34.6 µM (inactive) in the test on SR. Moreover, the GI50 was 36 µM (inactive) in the test on SW-620; 50 µM (inactive) in the test with OVCAR-8; > 100 µM (inactive) in the test on TK-10; 44 µM (inactive) in the test on PC-3; > 100 µM (inactive) in the test with HCT-116; > 100 µM (inactive) in the test with CAKI-1.
For the compound `CC(=O)OCC1OC(Nc2ccc3nc(C)n(-c4cccc(C)c4)c(=O)c3c2)C(OC(C)=O)C(OC(C)=O)C1OC(C)=O` (stereo not drawn), the GI50 in the test with SF-268, in the test with MDA-N, with COLO 205, in the test on 786-0, with LOX IMVI and with A498 was > 62.5 µM (inactive) each time. The GI50 with UACC-62, with SK-MEL-2, in the test with SK-MEL-28, in the test with ACHN, in the test on SNB-75 and with HT-29 was > 62.5 µM (inactive) in each case. Also, the GI50 in the test with SR, in the test with SW-620, in the test on OVCAR-8, with TK-10, with PC-3 and in the test on HCT-116 was > 62.5 µM (inactive) in each case. Also, the GI50 in the test on CAKI-1 is > 62.5 µM (inactive).
Take `CC1(C)CC[C@]2(C(=O)O)CC[C@]3(C)C(=CC[C@@H]4[C@@]5(C)CC[C@H](OC6OC(CO)C(O)C(O)C6O)C(C)(C)[C@@H]5CC[C@]43C)[C@@H]2C1` (stereo partly drawn): the GI50 is 1.83 µM (inactive) in the test on SF-268; 1.86 µM (inactive) in the test on MDA-N; 1.8 µM (inactive) in the test with COLO 205; 1.77 µM (inactive) with 786-0; 1.66 µM (inactive) in the test on LOX IMVI; 2.1 µM (inactive) in the test on A498. Further, the GI50 in the test on UACC-62 was 1.82 µM (inactive); in the test with SK-MEL-2 it was 1.71 µM (inactive); in the test with SK-MEL-28, 1.99 µM (inactive); in the test with ACHN, 1.66 µM (inactive); with CCRF-CEM, 2.22 µM (inactive); in the test on SNB-75 it was 2.12 µM (inactive). The GI50 with HT-29 was 1.62 µM (inactive); in the test on SR, 2.34 µM (inactive); with SW-620, 1.82 µM (inactive); in the test with OVCAR-8, 1.75 µM (inactive); in the test with PC-3, 1.6 µM (inactive); in the test with HCT-116, 1.69 µM (inactive). In the test on CAKI-1, the GI50 was 2.3 µM (inactive).
As to `COc1cc(OC)c(-c2oc3ccccc3c(=O)c2O)c(OC)c1`, the GI50 with SF-268 was > 41.3 µM (inactive); in the test with MDA-N, 0.867 µM (active); in the test with COLO 205, 3.08 µM (inactive); with 786-0, 13.4 µM (inactive); with LOX IMVI, 5.98 µM (inactive); with A498, 3.27 µM (inactive). Also, the GI50 is 2.69 µM (inactive) with UACC-62; > 22.8 µM (inactive) with SK-MEL-28; > 29 µM (inactive) in the test with ACHN; 6.75 µM (inactive) in the test on CCRF-CEM; 6.01 µM (inactive) in the test with SNB-75; 3.08 µM (inactive) with HT-29. Moreover, the GI50 is 3.69 µM (inactive) in the test on SR; 3.62 µM (inactive) with SW-620; 10.4 µM (inactive) in the test on OVCAR-8; > 100 µM (inactive) with TK-10; 5.69 µM (inactive) in the test on PC-3; 3.76 µM (inactive) with HCT-116. In addition, the GI50 in the test with CAKI-1 was 5.74 µM (inactive).
